We go through five compounds from PMC11620517, “Novel hydrazone compounds with broad-spectrum antiplasmodial activity and synergistic interactions with antimalarial drugs” (Antimicrobial Agents and Chemotherapy, 2024).

As usually defined, the pIC50 is −log10 of the IC50, conventionally taken in molar units. By IC50 is commonly meant the concentration that inhibits the measured activity by half. A low value points to inhibition by little substance.

The target of one data set is T1, human GST (Homo sapiens, UniProt P08263).
T1 construct: The open reading frames encoding PfGST, PbGST, and hGST were gene-synthesized; TEV cleavage site (C); Avitag (C); purchased InterRayBio, LLC; host or cells: E. coli BL21 (DE3)
T1 sequence (P08263 1-222): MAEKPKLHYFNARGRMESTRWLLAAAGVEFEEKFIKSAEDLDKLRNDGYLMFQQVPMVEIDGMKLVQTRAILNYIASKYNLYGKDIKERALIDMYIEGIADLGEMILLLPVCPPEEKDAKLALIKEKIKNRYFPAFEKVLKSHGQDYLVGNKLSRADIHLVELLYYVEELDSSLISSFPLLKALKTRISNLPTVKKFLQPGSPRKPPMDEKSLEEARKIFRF
In words: GST inhibition assay (CDNB). The class given is biochemical. As to conditions: 6-point 1–50 µM. Here is the method:
(§1) Enzymatic activities of recombinant GSTs were determined spectrophotometrically using the chromogenic substrate 1-chloro-2,4-dinitrobenzene (CDNB). Recombinant GST (0.35 mg/mL) was mixed with 1 mM CDNB in 100 mM HEPES. Stock solutions (10 mM) of the CB compounds and hemin were prepared in 100% dimethyl sulfoxide (DMSO) and then diluted at 0.5% DMSO ([14]). Each inhibitor has six concentrations ranging from 1 to 50 µM. The reaction was initiated with 1 mM glutathione (GSH) after 15 minutes. Absorbance change at 340 nm was measured for 1 hour. The slope was converted to micromole per minute using Beer’s equation and the extinction coefficient for the product S-(2,4-dinitrophenyl)glutathione (ε340 nm = 9.6 mM^–1 cm^–1) ([14]). The assay was validated using human placenta GST (#G8642) as a positive control.

For data set [1], the target named is T2, recombinant P. falciparum GST (Plasmodium falciparum, UniProt Q8ILQ7).
T2 construct: The open reading frames encoding PfGST, PbGST, and hGST were gene-synthesized; TEV cleavage site (C); Avitag (C); purchased InterRayBio, LLC; host or cells: E. coli BL21 (DE3)
T2 sequence (Q8ILQ7 1-211): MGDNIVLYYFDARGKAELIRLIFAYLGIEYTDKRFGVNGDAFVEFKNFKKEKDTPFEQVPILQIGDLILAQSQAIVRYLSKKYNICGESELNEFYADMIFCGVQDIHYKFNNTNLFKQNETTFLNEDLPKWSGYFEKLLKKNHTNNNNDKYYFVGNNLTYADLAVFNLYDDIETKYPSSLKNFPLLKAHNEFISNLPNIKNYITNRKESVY
The data set is described as follows: GST inhibition assay (CDNB). The class given is biochemical. As to conditions: 6-point 1–50 µM. Here is the method: as §1

The subject of data set [2] is recombinant P. berghei GST. In words: GST inhibition assay (CDNB). The format is biochemical, Plasmodium berghei. The conditions noted are these: 6-point 1–50 µM. How it is done: as §1
In data set [3] the test system is P. cynomolgi hypnozoites and hepatic schizonts. The data set is described as follows: P. cynomolgi liver-stage inhibition assay. The conditions noted are these: for pIC50: Plasmodium cynomolgi. The class given is cell-based, Plasmodium cynomolgi. How it is done:
(§2) Primary primate hepatocytes were seeded in 384-well plates and used within 2–4 days ([56]). P. cynomolgi B strain parasites were inoculated and developed into hypnozoites and schizonts. CB compounds were tested in 8-point, threefold serial dilutions (100 µM to […]) for both prophylactic (4 days starting with sporozoite addition) and radical cure (4 days starting day 4 post-inoculation) modalities ([56][–][60]). The Operetta CLS imaging system and Harmony Software 4.9 (Perkin Elmer, Waltham, MA, USA) analyzed the plates, and the percentage of inhibition (PI) was calculated in Python using equation (1), where parasitic quantities (hypnozoite and schizont counts) were normalized to the negative control ([57]). Each plate included negative (DMSO) and positive (KDU691, maduramicin, tafenoquine) controls ([58]). IC50 values were determined using an 8-point, threefold dilution format and a Python-adapted grid algorithm for fitting PI to a four-parameter logistic function ([61]).
PI = 100 ∗(1−(xy/Meanneg))

In data set [4] the test system is primary primate hepatocytes. The data set is described as follows: hepatocyte toxicity in the P. cynomolgi liver-stage assay. The format is cell-based. How it is done:
as §2

Data set [5] concerns P. berghei ookinete development (Ookluc parasites). In words: P. berghei ookinete luciferase inhibition assay. The class given is cell-based, Plasmodium berghei. As to conditions: for pIC50: read-out: IC50 (ookinete development). How it is done:
Mice were pretreated with phenylhydrazine [6 mg/mL, intraperitoneal injection (IP)] 3 days before intravenous injection (IV) infection with P. berghei Ookluc parasites ([19], [62]). Once parasitemia exceeded 15%, the mice received PYR (1 mg/mL, IP) ([19], [62]). Twenty-four hours after PYR treatment, infected mice were assessed for at least 10 exflagellations before blood was collected by heart puncture ([19], [62]). Infected blood (1:20 dilution) was incubated with 8-point serial dilutions (2.5–75 µM) of CB compounds for 24 hours at 19°C with gentle shaking ([62], [64]). Relative luminescence units (RLU) of mature ookinetes were measured using the Promega Nano-Glo Luciferase Assay System Kit and a SpectraMax M3 Microplate Reader (Molecular Devices, San Jose, CA, USA) after 3 minutes. Giemsa blood smears confirmed ookinetes.

A further data set is described as follows: in vitro. The conditions noted are these: human.
Where [6] appears, read: prophylactic drug treatment mode, read-out: Hypnozoite IC50.
Where [7] appears, read: prophylactic drug treatment mode, read-out: Schizont IC50.
[8] abbreviates: prophylactic drug treatment mode, read-out: Total parasite IC50.
The mark [9] stands for this setting: Plasmodium berghei, 24 h, 24 hours at 19°C, luminescence.

The structures appear in SMILES notation. pIC50: −log10 of the molar value. Like-named read-outs stand apart in the source and are kept apart here. Some results are limits rather than exact numbers.

Experimental for in vitro: HepG2 cell viability was assessed using the Cell Proliferation kit with trypan blue exclusion. […] After incubation, a 1.5-mg/mL Cell Proliferation kit solution diluted in complete MEM medium was added to each well, followed by 1-hour dark incubation at 25°C. After aspiration of media and inhibitors, the plates were dried in a hood for 15 minutes, and acidified isopropyl alcohol was added to dissolve formazan dye crystals. The plates were then rotated for 15–30 minutes, and absorbance was determined using a Perkin Elmer Ensight plate reader.

Regarding `O=C(NN=Cc1ccccc1O)c1cc(-c2ccccc2)nc2ccccc12` [CB-53], the GST inhibition result (at human GST; in data set [1]; in data set [2]) was “did not inhibit” throughout. Moreover, the pIC50 in data set [3] (setting [6]) was under 5.00; in data set [3] (setting [7]) it was under 5.00; in data set [3] (setting [8]), under 5.00; in data set [5] (setting [9]) it was 4.83. The compound also displayed a Toxicity in data set [4] of over 10 µM. The compound further showed an IC50 at 48 h in the data set “in vitro” (HepG2 cells) of over 20 µM.
Consider `COc1cccc(/C=N/NC(=O)c2cc(-c3ccccc3)nc3ccccc23)c1O` [CB-58], for which the GST inhibition result (on human GST; in data set [1]; in data set [2]) was “did not inhibit” throughout. Besides, the negative-log IC50 (pIC50) in data set [3] (setting [6]) was under 5.00; in data set [3] (setting [7]) it was under 5.00; in data set [3] (setting [8]) it was under 5.00; in data set [5] (setting [9]), 4.49. Also, the Toxicity in data set [4] is recorded as over 10 µM. The same compound yielded an IC50 at 48 h in “in vitro” (HepG2 cells) of over 20 µM.
For the compound `O=C(N/N=C/c1cc(Br)ccc1O)/C(=C/C=C/c1ccccc1)NC(=O)c1ccccc1` [CB-50], the GST inhibition result (at human GST; in data set [1]; in data set [2]) was “did not inhibit” each time. Also, the negative logarithm of the IC50 (pIC50) in data set [3] (setting [6]), in data set [3] (setting [7]) and in data set [3] (setting [8]) was under 5.00 in each case. This compound also yielded a Toxicity in data set [4] of over 10 µM. The “activity in ookinete formation” value in data set [5] (dose–response 2.5–75 µM) is “no activity”. Also, in “in vitro” (HepG2 cells), the IC50 at 48 h is over 20 µM.
As to `O=C(N/N=C/c1c(O)ccc2ccccc12)c1cc([N+](=O)[O-])cc([N+](=O)[O-])c1` [CB-61], the GST inhibition result (on human GST; in data set [1]; in data set [2]) was “did not inhibit” throughout. In addition, the pIC50 is under 5.00 in data set [3] (read-out: Hypnozoite IC50); under 5.00 in data set [3] (read-out: Schizont IC50); under 5.00 in data set [3] (read-out: Total parasite IC50); 4.53 in data set [5] (Plasmodium berghei, 24 h). The compound also had a Toxicity in data set [4] of over 10 µM. This compound also displayed an IC50 at 48 h in the data set “in vitro” of over 20 µM.
Consider `COc1cccc(/C=N/NC(=O)c2nc(-c3ccccc3)cc(-c3ccccc3)n2)c1O` [CB-41], for which the GST inhibition result (on human GST; in data set [1]; in data set [2]) was “did not inhibit” each time. In addition, the pIC50 is 5.06 in data set [3] (setting [6]); 5.08 in data set [3] (setting [7]); 5.07 in data set [3] (setting [8]); 5.08 in data set [5] (24 hours at 19°C, luminescence); 4.78 in data set [5] (setting [9]). The “antiplasmodial activity on liver stages” value in data set [3] (radical cure mode) was “did not show antiplasmodial activity”. For the same compound, the Toxicity in data set [4] is over 10 µM. For the same compound, the IC50 at 48 h in “in vitro” (HepG2 cells) is over 20 µM.
